We go through 4 compounds from patent publication US20050287666A1, “Cell culture medium comprising transition metals or trace elements” (priority 2004, published 2005).

What all share (format): cell-based, human
In experiment [1] the test system is PER.C6 cells. As to the kind of experiment: Lag in the subsequent culture when PER.C6 cells are passaged from overgrown high-density cultures in AEM. To be noted: for high density culturing / passaging of cells from high-density cultures: PER.C6 cells in AEM, cultures above 2×10^6 vc/mL.
For experiment [2], the system named is PER.C6 cells. As to the kind of experiment: PER.C6 cell growth in AEM with single trace elements added at low concentration (Example 2, FIG. 01). The note with it: for effect on PER.C6 cell growth: element added singly to AEM: nickel (nitrate) 0.004 mg/L, cobalt (chloride) 0.001 mg/L, manganese (chloride) 0.028 mg/L, copper (chloride) 0.013 mg/L, compared to control.

In experiment [3] the test system is PER.C6 cells. As to the kind of experiment: PER.C6 cell growth after adding cobalt, nickel and manganese to AEM supplemented with TEM-2 (Example 5, FIG. 04).
Experiment [4] has as its system PER.C6 cells. As to the kind of experiment: PER.C6 growth in AEM supplemented with TEM, TEM without zinc or zinc alone (Example 1 and preliminary work). The note with it: zinc evaluated separately. An excerpt: A trace element mix (TEM) was created and used in various test protocols. […] The following media supplements were compared: • 1) TEM. • 2) TEM without zinc. • 3) Zinc alone at the TEM concentration. • 4) These supplements were each added to individual bottles of AEM at 1×, 3×, 5× and 10×. The conditions were then monitored by observing PER.C6 growth. […] Two of the components in TEM, Cu and Ni would individual be toxic at the 10× levels. These levels of trace elements would have been observed in the preliminary variable observations. Thus it was decided that total trace element concentrations were not responsible for the deleterious effects observed.

“Also recorded” adds a separate entry of the source. Where two headings read alike, the source gives them in different places.

On to `[Cl][Cu][Cl]` [copper, copper (chloride)], for which the “high density culturing / passaging of cells from high-density cultures” value in experiment [1] was “does not improve passaging”. In addition, the “duration of log growth phase” value in experiment [2] (0.013 mg/L copper in AEM, all other cultures entered lag phase after day four or five) is “continued in the log growth phase through day six”. Moreover, the “effect on PER.C6 cell growth” value in experiment [2] is recorded as “best results of all conditions tested; also recorded: extends log phase growth”; in experiment [2] (listed as Copper), “increase growth”.

In the case of `[Cl][Mn][Cl]` [manganese, manganese (chloride)], in experiment [3] (added to AEM supplemented with TEM-2, same concentrations as in example 2), the “effect on PER.C6 cell growth performance” value was “no effect”. Besides, the “effect on PER.C6 cell growth” value in experiment [2] was “inhibits; also recorded: individually toxic”.

On to `[Zn]` [Zinc], for which the “high density culturing / passaging of cells from high-density cultures” value in experiment [1] was “consistent high density culturing”. The “lag in the subsequent culture” value in experiment [1] (passaged from overgrown day 5 cultures, AEM) is recorded as “did not lag”. The overall cell growth entry in experiment [4] was “improve overall cell growth”.

Regarding `[Cl][Co][Cl]` [cobalt, cobalt (chloride)], the “effect on PER.C6 cell growth performance” value in experiment [3] was “no effect”.
